Source: patent US6465654B2, “Process for preparing 1-substituted, 2-substituted 1H-imidazo[4, 5-c]quinoline-4-amines” (3M Innovative Properties Company, priority 1991, dated 2002)

Tests used:
interferon-α = assay: Interferon-α induction in human cells, PBM; assay type: cell-based; conditions: 24 hours
interferon = assay: Interferon induction in mice; assay type: in vivo; conditions: mouse serum
Description: One hour later blood samples are withdrawn from the first group. The samples are pooled then centrifuged. The serum is removed from the centrifuge tube, split into two portions, then placed in freezing vials and maintained at −70° C. until analysis. This procedure is repeated at 2 hours with the second group of mice and at 4 hours with the third group of mice. Samples are assayed as described above in connection with the analysis of interferon induction in human cells. The results are expressed in the table below as α/β reference units/mL based on the value obtained for a mouse MU-1-IF standard. Results are shown in the table below wherein results designated as “<” a certain number indicate that interferon was not detectable in amounts above the lower sensitivity level of the assay.

[1] = tested on: vesicular stomatitis virus (VSV); assay: microbe, parasite or virus in culture; assay type: cell-based; conditions: Vesicular stomatitis virus, read-out: VSV Yield Inhibition

| Compound | Interferon-α induction (interferon-α; dose concentration 0.10 μg/mL) | Interferon-α induction (interferon-α; dose concentration 0.50 μg/mL) | Interferon-α induction (interferon-α; dose concentration 1.0 μg/mL) | Interferon-α induction (interferon-α; dose concentration 5.0 μg/mL) | Interferon induction in mice (interferon; oral 0.3 mg/kg, 1 hr) [Reference Units/mL] | Interferon induction in mice (interferon; oral 0.3 mg/kg, 2 hr) [Reference Units/mL] | Interferon induction in mice (interferon; oral 0.3 mg/kg, 4 hr) [Reference Units/mL] | Interferon induction in mice (interferon; oral 1 mg/kg, 1 hr) | Interferon induction in mice (interferon; oral 1 mg/kg, 2 hr) [Reference Units/mL] | Interferon induction in mice (interferon; oral 1 mg/kg, 4 hr) | Interferon induction in mice (interferon; oral 3 mg/kg, 1 hr) | Interferon induction in mice (interferon; oral 3 mg/kg, 2 hr) [Reference Units/mL] | Interferon induction in mice (interferon; oral 3 mg/kg, 4 hr) | Interferon induction in mice (interferon; oral 10 mg/kg, 1 hr) [Reference Units/mL] | Interferon induction in mice (interferon; oral 10 mg/kg, 2 hr) [Reference Units/mL] | Interferon induction in mice (interferon; oral 10 mg/kg, 4 hr) | log reduction at 1 µg/mL [1] | Interferon-α induction (interferon-α; dose concentration 0.01 μg/mL) | log reduction at 0.1 µg/mL [1] | log reduction at 0.5 µg/mL [1] | also measured |
| --- | --- | --- | --- | --- | --- | --- | --- | --- | --- | --- | --- | --- | --- | --- | --- | --- | --- | --- | --- | --- | --- |
| CC(=O)NCc1nc2c(N)nc3ccccc3c2n1CC(C)C [Example 15, N-Acetyl-4-amino-1-(2-methylpropyl)-1H-imidazo-[4,5-c]quinoline-2-methanamine] | <1.8 α Reference Units/mL | 250 α Reference Units/mL | 430 α Reference Units/mL | 750 α Reference Units/mL | <120 | <120 | <120 | <120 Reference Units/mL | <120 | <120 Reference Units/mL | <120 Reference Units/mL | 270 | <120 Reference Units/mL | 270 | 3100 | 270 Reference Units/mL | 6 |  |  |  | log reduction at 5 µg/mL [1]: 5; log reduction at 10 µg/mL [1]: 5 |
| Nc1nc2ccccc2c2c1nc(CO)n2Cc1ccccc1 [Example 27, 4-Amino-1-phenylmethyl-1H-imidazo[4,5-c]-quinoline-2-methanol] | 3300 α Reference Units/mL | 550 α Reference Units/mL | 370 α Reference Units/mL | 490 α Reference Units/mL | <45 | <45 | <45 | <45 Reference Units/mL | <45 | <45 Reference Units/mL | <59 Reference Units/mL | 230 | <45 Reference Units/mL | 130 | 690 | <45 Reference Units/mL | 4 | <4 α Reference Units/mL | 4 | 3 | Interferon-α induction (interferon-α; dose concentration 0.05 μg/mL): 24 α Reference Units/mL |
| CCOCc1nc2c(N)nc3ccccc3c2n1CC(C)C [Example 40, 2-Ethoxymethyl-1-(2-methylpropyl)-1H-imidazo[4,5-c]quinolin-4-amine] | 680 α Reference Units/mL | 230 α Reference Units/mL | 210 α Reference Units/mL | 210 α Reference Units/mL | 450 | 200 | <29 | 450 Reference Units/mL | 450 | 110 Reference Units/mL | 990 Reference Units/mL | 1100 | 210 Reference Units/mL | 1600 | 1600 | 170 Reference Units/mL | 7 |  |  |  | log reduction at 5 µg/mL [1]: 7; log reduction at 10 µg/mL [1]: 6 |
| COC(c1ccccc1)c1nc2c(N)nc3ccccc3c2n1CC(C)C (stereo not drawn) [Example 51, 2-(α-Methoxybenzyl)-1-(2-methylpropyl)-1H-imidazo[4,5-c]quinolin-4-amine] | <5 α Reference Units/mL | <5 α Reference Units/mL | 1000 α Reference Units/mL | 330 α Reference Units/mL |  |  |  |  |  |  |  |  |  |  |  |  | 5 |  | 0 | 1 |  |
| COCCc1nc2c(N)nc3ccccc3c2n1CC(C)C [Example 72, 2-(2-Methoxyethyl)-1-(2-methylpropyl)-1H-imidazo[4,5-c]quinolin-4-amine] | 200 α Reference Units/mL | 210 α Reference Units/mL | 220 α Reference Units/mL | 420 α Reference Units/mL |  |  |  |  |  |  |  |  |  |  |  |  | 5 |  | 5 | 5 |  |
| COC(C)Cc1nc2c(N)nc3ccccc3c2n1CC(C)C (centres unmarked) [Example 77, 2-(2-Methoxypropyl)-1-(2-methylpropyl)-1H-imidazo[4,5-c]quinolin-4-amine] | 2600 α Reference Units/mL | 390 α Reference Units/mL | 250 α Reference Units/mL | 280 α Reference Units/mL |  |  |  |  |  |  |  |  |  |  |  |  | 5 | <6.3 α Reference Units/mL | 3 | 5 | Interferon-α induction (interferon-α; dose concentration 0.05 μg/mL): <6.3 α Reference Units/mL |
| CC(C)Cn1c(CC(C)O)nc2c(N)nc3ccccc3c21 (stereo not drawn) [Example 81, 4-Amino-α-methyl-1-(2-methylpropyl)-1H-imidazo[4,5-c]quinoline-2-ethanol] | 1100 α Reference Units/mL | 2200 α Reference Units/mL | 460 α Reference Units/mL | 1100 α Reference Units/mL |  |  |  |  |  |  |  |  |  |  |  |  | 5 |  | 5 | 4 |  |
| CCCCn1c(COCC)nc2c(N)nc3ccccc3c21 [Example 117, 1-Butyl-2-ethoxymethyl-1H-imidazo[4,5-c]quinolin-4-amine] | 340 α Reference Units/mL | 140 α Reference Units/mL | 91 α Reference Units/mL | 110 α Reference Units/mL | <160 | 1200 | <160 | ≦270 Reference Units/mL | 630 | ≦270 Reference Units/mL | ˜820 Reference Units/mL | 2200 | ˜310 Reference Units/mL | 1100 | 480 | ˜310 Reference Units/mL |  | <4.4 α Reference Units/mL |  |  | Interferon-α induction (interferon-α; dose concentration 0.05 μg/mL): 360 α Reference Units/mL |
